From patent US20240018146A1, “COMPOSITIONS AND METHODS OF USING THE SAME FOR TREATMENT OF NEURODEGENERATIVE AND MITOCHONDRIAL DISEASE” (MITOKININ, INC., priority 2020, published 2024)
pEC50: −log10 of the molar value. Where two headings read alike, the source gives them in different places.

What was measured:
[1] = test system: HeLa MKYP cells; test: Human mitophagy assay (HeLa mKeima assay, FACS); format: cell-based; details: read-out: Mitophagy induction EC50
Method: Briefly, HeLa MKYP cells were plated at 10,000 cells/well in 96 well plates along with compounds at various concentrations. Following 16 hrs of incubation, cells were treated with 1 uM FCCP/oligomycin for 6 hours, then analyzed via FACS for the presence of mitochondria in lysosomes (as determined by an emissions spectrum shift from the pH-sensitive mtKeima tag).
Briefly, HeLa cells expressing a mitophagy indicator (mtKeima) protein were treated with […] of FCCP and Oligomycin followed by the specified dose of compound, then analyzed by FACS to quantify the percentage of cells undergoing mitophagy.

[2] = test system: HeLa MKYP cells; test: Cell death measured by DAPI staining, with 1 μM FCCP/oligomycin or no toxin (no FO); format: cell-based
Method: EP-0035985, EP-0037821, EP-0038098, and EP-0038099 in the presence of 1 μM FCCP/oligomycin or with no toxin (no FO) for 6 hrs. H2O2 treatment was performed as a control for cell death as measured by DAPI staining.
EP-0035985, EP-0038461, EP-0038463, and EP-0038503 in the presence of 1 μM FCCP/oligomycin or with no toxin (no FO) for 6.5 hrs. H2O2 treatment was performed as a control for cell death as measured by DAPI staining.
EP-0035985, EP-0038504, EP-0038508, and EP-0038521 in the presence of 1 μM FCCP/oligomycin or with no toxin (no FO) for 6.5 hrs. H2O2 treatment was performed as a control for cell death as measured by DAPI staining.
EP-0035985, EP-0038461, EP-0038463, EP-0038503, EP-0038504, EP-0038508, and EP-0038521 in the presence of 1 μM FCCP/oligomycin or with no toxin (no FO) for 6.5 hrs. H2O2 treatment was performed as a control for cell death as measured by DAPI staining.

Fc1ccc2c(c1)OC[C@@H](N1CCOCC1)[C@@H]2Nc1ncnc2[nH]c(C3CC3)cc12 (single isomer, unassigned) [EP-0040501] was tested, and the pEC50 ([1]; Homo sapiens, HeLa) was 4.85, the “Highest safe dose (cytotoxicity; no FO; safe means DAPI+ <20%)” value [2] was 25.0 µM and the “Max % death with 1 μM FO” value [2] was 5.0%.
For FC(F)(F)c1cc2c(N[C@H]3c4ccccc4OC[C@@H]3N3CCC4(COC4)C3)ncnc2[nH]1 (single isomer, unassigned) [EP-0041516], the pEC50 ([1]; Homo sapiens, HeLa) was 5.49, the “Highest safe dose (cytotoxicity; no FO; safe means DAPI+ <20%)” value [2] was 25.0 µM and the “Max % death with 1 μM FO” value [2] was 11.8%.
In the case of FC1COCCC1[C@H]1COc2ccccc2[C@@H]1Nc1ncnc2[nH]c(C(F)(F)F)cc12 (single isomer, unassigned) [EP-0041323], the pEC50 [1] was 4.96, the “Highest safe dose (cytotoxicity; no FO; safe means DAPI+ <20%)” value [2] was 25.0 µM and the “Max % death with 1 μM FO” value [2] was 9.2%.
Fc1ccc2c(c1)CC[C@@H](N1C[C@@H]3COC[C@H]3C1)[C@@H]2Nc1ncnc2[nH]c(C(F)(F)F)cc12 [EP-0040696] was tested, and the pEC50 ([1]; Homo sapiens, HeLa) was 4.63, the “Highest safe dose (cytotoxicity; no FO; safe means DAPI+ <20%)” value [2] was 25.0 µM and the “Max % death with 1 μM FO” value [2] was 14.9%.
C[C@@H]1CN([C@@H]2CCc3ccccc3[C@H]2Nc2ncnc3[nH]c(C4CC4)cc23)CCO1 (single isomer, unassigned) [EP-0040497] was tested, and the pEC50 ([1]; Homo sapiens, HeLa) was 5.16, the “Highest safe dose (cytotoxicity; no FO; safe means DAPI+ <20%)” value [2] was 25.0 µM and the “Max % death with 1 μM FO” value [2] was 4.3%.
COC[C@@H]1CCN([C@H]2COc3ccccc3[C@@H]2Nc2ncnc3[nH]c(C(F)(F)F)cc23)C1 (single isomer, unassigned) [EP-0041072] was tested, and the pEC50 [1] was < 4.60, the “Highest safe dose (cytotoxicity; no FO; safe means DAPI+ <20%)” value [2] was 25.0 µM and the “Max % death with 1 μM FO” value [2] was 8.0%.
With FC1COCCC1[C@H]1COc2ccccc2[C@@H]1Nc1ncnc2[nH]c(C(F)(F)F)cc12 (single isomer, unassigned) [EP-0041322] the pEC50 [1] was < 4.60, the “Highest safe dose (cytotoxicity; no FO; safe means DAPI+ <20%)” value [2] was 25.0 µM and the “Max % death with 1 μM FO” value [2] was 11.0%.
With Fc1ccc2c(c1)CC[C@H](N1C[C@H]3COC[C@H]3C1)[C@H]2Nc1ncnc2[nH]c(C(F)(F)F)cc12 (single isomer, unassigned) [EP-0040720] the pEC50 ([1]; Homo sapiens, HeLa) was 5.20, the “Highest safe dose (cytotoxicity; no FO; safe means DAPI+ <20%)” value [2] was 25.0 µM and the “Max % death with 1 μM FO” value [2] was 12.1%.
FC(F)OC1CN([C@H]2COc3ccccc3[C@@H]2Nc2ncnc3[nH]c(C(F)(F)F)cc23)C1 (racemic) [EP-0041354] was tested, and the pEC50 [1] was 5.97, the “Highest safe dose (cytotoxicity; no FO; safe means DAPI+ <20%)” value [2] was 25.0 µM and the “Max % death with 1 μM FO” value [2] was 12.4%.
For N#CC1CN([C@H]2COc3ccccc3[C@@H]2Nc2ncnc3[nH]c(C(F)(F)F)cc23)C1 [EP-0041332], the pEC50 ([1]; Homo sapiens, HeLa) was 5.81, the “Highest safe dose (cytotoxicity; no FO; safe means DAPI+ <20%)” value [2] was 25.0 µM and the “Max % death with 1 μM FO” value [2] was 11.7%.
For CC(C)OC1CN([C@H]2COc3ccccc3[C@@H]2Nc2ncnc3[nH]c(C(F)(F)F)cc23)C1 [EP-0041465], the pEC50 ([1]; Homo sapiens, HeLa) was 5.16, the “Highest safe dose (cytotoxicity; no FO; safe means DAPI+ <20%)” value [2] was 25.0 µM and the “Max % death with 1 μM FO” value [2] was 4.6%.
With COC[C@@H]1CCCN1[C@H]1COc2ccccc2[C@@H]1Nc1ncnc2[nH]c(C(F)(F)F)cc12 (single isomer, unassigned) [EP-0041491] the pEC50 ([1]; Homo sapiens, HeLa) was 4.99, the “Highest safe dose (cytotoxicity; no FO; safe means DAPI+ <20%)” value [2] was 25.0 µM and the “Max % death with 1 μM FO” value [2] was 3.7%.
With c1ccc2c(c1)OC[C@H](C1CCOCC1)[C@@H]2Nc1ncnc2[nH]c(C3CC3)cc12 [EP-0040731] the pEC50 ([1]; Homo sapiens, HeLa) was < 4.60, the “Highest safe dose (cytotoxicity; no FO; safe means DAPI+ <20%)” value [2] was 25.0 µM and the “Max % death with 1 μM FO” value [2] was 2.7%.
FC(F)(F)c1cc2c(NC3c4ccccc4OCC3N3CCC4(CCOC4)CC3)ncnc2[nH]1 (stereo not drawn) [EP-0040545] was tested, and the pEC50 ([1]; Homo sapiens, HeLa) was < 4.60, the “Highest safe dose (cytotoxicity; no FO; safe means DAPI+ <20%)” value [2] was 25.0 µM and the “Max % death with 1 μM FO” value [2] was 3.7%.
For c1ccc2c(c1)CC[C@@H](C1CCOCC1)[C@@H]2Nc1ncnc2[nH]c(C3CC3)cc12 [EP-0040727], the pEC50 ([1]; Homo sapiens, HeLa) was 5.55, the “Highest safe dose (cytotoxicity; no FO; safe means DAPI+ <20%)” value [2] was 25.0 µM and the “Max % death with 1 μM FO” value [2] was 7.7%.
FC(F)(F)c1cc2c(N[C@H]3c4ccc(Br)cc4OC[C@@H]3N3CCOCC3)ncnc2[nH]1 (single isomer, unassigned) [EP-0041021] was tested, and the pEC50 ([1]; Homo sapiens, HeLa) was 5.47, the “Highest safe dose (cytotoxicity; no FO; safe means DAPI+ <20%)” value [2] was 25.0 µM and the “Max % death with 1 μM FO” value [2] was 13.2%.
C[C@@]12COC[C@]1(C)CN(C1COc3ccccc3C1Nc1ncnc3[nH]c(C(F)(F)F)cc13)C2 (stereo partly drawn) [EP-0040524] was tested, and the pEC50 ([1]; Homo sapiens, HeLa) was 5.57, the “Highest safe dose (cytotoxicity; no FO; safe means DAPI+ <20%)” value [2] was 25.0 µM and the “Max % death with 1 μM FO” value [2] was 27.7%.
For c1ccc2c(c1)CC[C@H](C1CCOCC1)[C@@H]2Nc1ncnc2[nH]c(C3CC3)cc12 [EP-0040627], the pEC50 ([1]; Homo sapiens, HeLa) was 4.61, the “Highest safe dose (cytotoxicity; no FO; safe means DAPI+ <20%)” value [2] was 25.0 µM and the “Max % death with 1 μM FO” value [2] was 4.8%.
